From paper PMC8175350, “Drug repurposing screens identify chemical entities for the development of COVID-19 interventions” (Nature Communications, 2021)
Several values for one entry are separate records, joined by “and”; a condition that tells them apart may be missing. Equal entries are not always repeated. Where two headings read alike, the source gives them in different places.

Experiments:
[1] = tested on: COVID-19; details: ref [9]; cited from earlier work
[2] = tested on: HeLa-ACE2 cells; experiment: Total cell count in the HeLa-ACE2 TOA assay; assay type: cell-based; details: Homo sapiens
From the text: Supplement 41467_2021_23328_MOESM3_ESM.xlsx, sheet "Table S1" | column: HeLa-ACE2 TOA cell count

[3] = in vitro; details: human
[4] = tested on: SARS-CoV-2; assay type: cell-based
[5] = tested on: SARS-CoV-2; experiment: microbe, parasite or virus in culture; assay type: cell-based; details: for SARS-CoV-2 % infected cells: 10 µM after 1 h infection; for TOA: HeLa-ACE2, replicate wells n=1-3
[6] = tested on: Calu-3 cells; experiment: Uninfected Calu-3 48 h Cell-Titer Glo cytotoxicity counter screen
[7] = tested on: SARS-CoV-2; experiment: microbe, parasite or virus in culture; assay type: cell-based; details: for %infected: replicate wells n=1-3
[8] = tested on: COVID-19; details: shortened from 15; ref [7]; cited from earlier work
[9] = tested on: Calu-3 cells; experiment: cells; details: Homo sapiens
[10] = Uninfected HeLa-ACE2 24 h live/dead cytotoxicity counter screen; assay type: cell-based, human; details: human, uninfected HeLa-ACE2 cells
[11] = tested on: HeLa-ACE2 cells; experiment: as above; assay type: cell-based, human; details: for cytotox: HeLa-ACE2, replicate wells n=1-3
[12] = tested on: HeLa-ACE2 cells; experiment: cells; details: Homo sapiens
[13] = tested on: SARS-CoV-2; experiment: microbe, parasite or virus in culture; assay type: cell-based; details: for %infected: Calu-3, replicate wells n=1-3; for EC50: read-out: Calu-3 SARS-CoV-2 EC50
[14] = curve plateau at infinite concentration

CCC(CC)COC(=O)[C@H](C)N[P@](=O)(OC[C@H]1O[C@@](C#N)(c2ccc3c(N)ncnn23)[C@H](O)[C@@H]1O)Oc1ccccc1 [Remdesivir]
mortality of hospitalized COVID-19 patients [1]: failed to reduce mortality | Emax ([2]; HeLa-ACE2, 10 h, curve plateau at infinite concentration, read-out: HeLa-ACE2 TOA cell count Sinf Average): 100% | EC50 ([2]; HeLa-ACE2, read-out: HeLa-ACE2 TOA cell count EC50 GeoMean): > 9.61 µM | CC50 ([3]; Calu-3 Uninf. cells CC50 (µM), reconfirmed hits): > 30 µM | CC50 ([3]; Calu-3 Uninf. cells CC50 (µM), value in brackets*: remdesivir control): > 30 µM | CC50 ([3]; Calu-3 uninfected cytotoxicity CC50 GeoMean): > 29.9 µM | CC50 ([3]; cytotoxicity CC50, uninfected Calu-3, geomean): > 30 µM | effect on viral replication in ALI-HBECs [4]: inhibited viral replication | SARS-CoV-2 % infected cells ([5]; 4:00:00 post infection): 0.0558% and 0.1777% and 0.2107% | SARS-CoV-2 % infected cells ([5]; 5:00:00): 0.7242% and 1.236% and 0.5657% | SARS-CoV-2 % infected cells ([5]; 6:00:00): 1.289% and 0.8606% | SARS-CoV-2 % infected cells ([5]; 7:00:00): 0.8435% and 0.9162% | SARS-CoV-2 % infected cells ([5]; 8:00:00): 1.114% and 1.68% | SARS-CoV-2 % infected cells ([5]; 10:00:00): 1.9707% and 2.635% | SARS-CoV-2 % infected cells ([5]; 11:00:00): 2.255% and 2.403% | SARS-CoV-2 % infected cells ([5]; 12:00:00): 4.554% | SARS-CoV-2 % infected cells ([5]; 24:00:00): 1.211% and 0.9586% | activity when treatment was initiated at 1 hpi ([5]; HeLa-ACE2, 10 µM): effectively blocked the infection | TOA ([5]; concentration log[M] -5.61909): -92.6138 and -80.8583 and -88.199 and -76.7514 and -93.5448 and -83.4805 and -80.3661 and -74.8437 and -99.8898 | TOA ([5]; concentration log[M] -6.09621): -68.7737 and -49.7255 and -48.7992 and -40.2692 and -44.1304 and -40.198 and -47.0122 and -58.4412 and -51.4261 | TOA ([5]; concentration log[M] -6.57334): -20.3161 and -18.1481 and -10.1709 and -1.508 and -0.9303 and -16.8539 and -5.25 and -7.77 | TOA ([5]; concentration log[M] -7.05046): -7.493 and -17.8403 and -13.1433 and -19.1912 and -3.289 and -5.355 and 2.9336 and -2.419 | TOA ([5]; concentration log[M] -7.52758): -5.952 and 2.422 and 1.456 and -1.724 and -2.397 and 2.2617 and 7.029 and -1.667 and -1.15 | TOA ([5]; concentration log[M] -8.0047): 5.958 and 5.629 and 3.068 and -1.8321 and 3.442 and 6.226 and 7.961 and 4.025 and 11.376 | TOA ([5]; concentration log[M] -8.48182): 4.28 and 10.7449 and 12.4349 and -4.585 and 4.364 and -1.184 and 4.823 and 5.851 and -1.616 | TOA ([5]; concentration log[M] -8.95894): -2.286 and -0.1755 and 11.8345 and -1.884 and 3.08 and 1.621 and -5.04 and -0.06688 and -11.3351 | Emax ([5]; Severe acute respiratory syndrome coronavirus 2, HeLa-ACE2, 10 h, curve plateau at infinite concentration, read-out: HeLa-ACE2 TOA CoV-2 Sinf Average): 102% | EC50 ([5]; Severe acute respiratory syndrome coronavirus 2, HeLa-ACE2, read-out: HeLa-ACE2 TOA CoV-2 EC50 GeoMean): 0.795 µM | EC50 ([5]; Severe acute respiratory syndrome coronavirus 2, HeLa-ACE2, fixed 10 hpi, geomean, read-out: CoV-2 TOA EC50): 0.77 µM | cytotox ([6]; Calu-3, concentration log[M] -5, replicate wells n=1-3): 10.3923 and -8.975 and 0.952 and 18.306 and 7.959 and -3.54 and 10.6309 and -10.2579 and 5.131 | Calu-3 uninfected cytotoxicity Sinf Average [6, 14]: -95% | increase in EC50 from MOI = 0.09 to MOI = 2.2 ([7]; HeLa-ACE2): 2.7 fold | EC50 ([7]; HeLa-ACE2, individual values of 9 independent experiments, read-out: EC50 (µM), Fig 1c): 191 nM and 83 nM and 141 nM and 130 nM and 138 nM (2×) | %infected ([7]; HeLa-ACE2, concentration log[M] -5.61909): -99.4999% and -95.8005% and -94.7545% and -97.535% and -100.056% and -100.005% and -100.014% and -99.12% and -100% | %infected ([7]; HeLa-ACE2, concentration log[M] -6.09621): -99.2124% and -98.9733% and -96.3176% and -99.76% and -100.229% and -100.013% | %infected ([7]; HeLa-ACE2, concentration log[M] -8.48182): 18.582% and -4.2719% and -2.02% and 15.6179% and -5.577% and 7.137% and 7.4% and 8.398% and -2.488% | %infected ([7]; HeLa-ACE2, concentration log[M] -8.95894): 3.102% and 6.636% and 1.634% and -11.6076% and 6.069% and -5.672% and -8.653% | Emax ([7]; Severe acute respiratory syndrome coronavirus 2, HeLa-ACE2, 24 h, curve plateau at infinite concentration, read-out: HeLa-ACE2 CoV-2 Sinf Average): 100% | EC50 ([7]; Severe acute respiratory syndrome coronavirus 2, HeLa-ACE2, HeLa-ACE2, MOI 0.51, read-out: EC50): 0.126 µM | EC50 ([7]; Severe acute respiratory syndrome coronavirus 2, HeLa-ACE2, HeLa-ACE2, MOI 1.1, read-out: EC50): 0.145 µM | EC50 ([7]; Severe acute respiratory syndrome coronavirus 2, HeLa-ACE2, HeLa-ACE2, MOI 2.2, read-out: EC50): 0.223 µM | EC50 ([7]; Severe acute respiratory syndrome coronavirus 2, HeLa-ACE2, reconfirmed hits, read-out: HeLa-ACE2 SARS-CoV-2 EC50): 0.127 µM | EC50 ([7]; Severe acute respiratory syndrome coronavirus 2, HeLa-ACE2, value in brackets*: remdesivir control, read-out: HeLa-ACE2 SARS-CoV-2 EC50): 0.123 µM | median time to recovery [8]: 11 days | Emax ([9]; Calu-3, 48 h, read-out: Calu-3 cell count Sinf Average): 103% | EC50 ([9]; Calu-3, read-out: Calu-3 cell count EC50 GeoMean): 0.7 µM | EC50 ([9]; Calu-3, read-out: cell count EC50, Calu-3, geomean, ^↑ = increasing dose-response curve): 0.537 µM | CC50 at 24 h ([10]; geomean, read-out: uninfected HeLa-ACE2 cytotoxicity CC50): > 9.67 µM | CC50 at 24 h ([10]; reconfirmed hits, read-out: HeLa-ACE2 Uninf. cells CC50): 9.97 µM | CC50 at 24 h ([10]; value in brackets*: remdesivir control, read-out: HeLa-ACE2 Uninf. cells CC50): 9.67 µM | CC50 at 24 h ([10]; read-out: HeLa-ACE2 uninfected cytotoxicity CC50 GeoMean): 9.97 µM | cytotox ([11]; concentration log[M] -5): -48.6076 and -58.6844 and -51.3625 and -48.213 and -50.9294 and -56.7143 and -47.8141 and -43.3369 and -36.9299 | cytotox ([11]; concentration log[M] -5.47712): -19.1561 and -17.8418 and -30.9661 and -14.3691 and -23.5688 and -36.4286 and -15.3846 and -28.169 and -29.0323 | cytotox ([11]; concentration log[M] -5.95424): 6.751 and 11.4789 and 9.414 and -2.699 and 2.9 and 4.429 and 8.301 and 5.85 and 4.672 | cytotox ([11]; concentration log[M] -6.43136): -5.57 and 5.718 and -0.9083 and 5.1787 and 2.305 and -8.143 and -9.851 and -10.8342 and 4.561 | cytotox ([11]; concentration log[M] -6.90849): 2.8692 and 11.5649 and -1.239 and 5.033 and 15.0929 and 0 and 8.342 | cytotox ([11]; concentration log[M] -7.38561): -3.882 and -2.966 and 0.578 and 12.6185 and 0.223 and 8.571 and 4.759 and -6.934 and 4.338 | cytotox ([11]; concentration log[M] -7.86273): 4.3038 and -8.727 and 10.4046 and -9.847 and -4.535 and -6.857 and 3.25 and -6.674 | cytotox ([11]; concentration log[M] -8.33985): 0.2532 and 0.129 and -1.817 and 2.115 and -17.6208 and -2.857 and -8.744 and 4.117 and 1.669 | HeLa-ACE2 uninfected cytotoxicity Sinf Average [11, 14]: -86% | Emax ([12]; HeLa-ACE2, 24 h, read-out: HeLa-ACE2 cell count Sinf Average): 100% | EC50 ([12]; HeLa-ACE2, read-out: HeLa-ACE2 cell count EC50 GeoMean): > 9.6 µM | EC50 ([12]; HeLa-ACE2, read-out: cell count in infection assay EC50, HeLa-ACE2, geomean, ^↑ = increasing dose-response curve): > 1.2 µM | %infected ([13]; concentration log[M] -5): -100% and -99.897% and -100.088% and -98.7564% and -99.5799% and -100.046% and -100.098% and -100.338% and -99.9472% | %infected ([13]; concentration log[M] -5.47712): -99.1601% and -98.4923% and -99.234% and -99.2295% and -99.4568% and -99.7507% and -99.3361% and -99.5394% and -98.7541% | %infected ([13]; concentration log[M] -5.95424): -89.5337% and -93.208% and -92.5628% and -91.8668% and -95.3312% and -93.4282% and -90.0849% and -90.1886% and -82.0673% | %infected ([13]; concentration log[M] -6.43136): -39.9603% and -66.0539% and -61.9632% and -57.8703% and -42.505% and -37.1362% and -41.0562% and -18.9015% and -48.5538% | %infected ([13]; concentration log[M] -6.90849): 15.313% and 14.726% and -3.639% and 30.6752% and -6.396% and 10.9651% and -1.713% and -1.879% | %infected ([13]; concentration log[M] -7.38561): 1.995% and -3.779% and 16.4097% and -7.2105% and 10.833% and 28.7058% and 9.608% and 17.5254% | %infected ([13]; concentration log[M] -7.86273): 12.1902% and -3.292% and 25.9949% and 14.3562% and 4.371% and -33.8895% and 13.327% and 8.365% and 21.3189% | %infected ([13]; concentration log[M] -8.33985): -5.4528% and 0% and -9.776% and -9.382% and 5.183% and 10.3172% and 15.4186% and 28.7222% | Emax ([13]; Severe acute respiratory syndrome coronavirus 2, Calu-3, 48 h, curve plateau at infinite concentration, read-out: Calu-3 CoV-2 Sinf Average): 102% | EC50 ([13]; Severe acute respiratory syndrome coronavirus 2, Calu-3, reconfirmed hits): 0.606 µM | EC50 ([13]; Severe acute respiratory syndrome coronavirus 2, Calu-3, value in brackets*: remdesivir control): 0.444 µM
